The experiment has as its target T1, MeCP2-TBL1 interaction (MeCP2-SmBiT / TBL1-LgBiT) (Mus musculus, UniProt Q9QXE7).
T1 construct: expressed in transfected cells; crude lysate used as a cell-free assay
T1 sequence (Q9QXE7 166-527): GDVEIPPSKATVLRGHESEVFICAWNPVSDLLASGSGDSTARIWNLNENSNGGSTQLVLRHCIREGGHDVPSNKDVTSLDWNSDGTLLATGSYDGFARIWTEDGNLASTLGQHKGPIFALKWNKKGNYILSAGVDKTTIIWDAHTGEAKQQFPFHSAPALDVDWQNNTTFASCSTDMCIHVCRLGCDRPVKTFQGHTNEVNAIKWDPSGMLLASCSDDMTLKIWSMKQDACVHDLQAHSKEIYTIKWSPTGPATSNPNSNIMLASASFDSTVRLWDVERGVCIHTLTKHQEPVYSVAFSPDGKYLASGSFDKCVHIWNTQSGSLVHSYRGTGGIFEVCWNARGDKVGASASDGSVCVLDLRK
Description: MeCP2-TBL1 NanoLuc luciferase complementation assay (cell-free, extracts of transfected HEK293 cells). The experiment is classed as binding, human. The text has this:
To facilitate the discovery of inhibitors of the interaction between MeCP2 and TBL1/TBLR1, we set out to devise a simple and scalable biochemical assay for measuring the interaction between these two proteins. We initially explored the possibility of screening compound libraries using a previously established fluorescence polarization assay that depends on purified recombinant TBL1/TBLR1[26]. […] The resulting luminescence signal depends on the affinity between the two interacting proteins of interest (Fig. 1A). This method was originally developed to allow for the interrogation of protein–protein interactions in vivo. However, in order to facilitate large scale screening of chemical libraries, we adapted the assay for use as a cell-free system.
We fused the large N-terminal fragment of NanoLuc (LgBiT) to the C-terminus of the WD repeat domains of both TBL1 and TBLR1, and the small C-terminal fragment of NanoLuc (SmBiT) to the C-terminus of the C-terminal half of MeCP2 (Fig. 1B and C). This region of MeCP2 contains the NID (NCoR interaction domain)—the motif in MeCP2 that binds to TBL1/TBLR1.
The AgeI-NotI restriction fragment (encoding EGFP) was then replaced with a codon optimized SmBiT sequence to yield the MeCP2-SmBiT expression plasmid. The TBL1-LgBiT expression vector was derived from a TBL1-mCherry plasmid[25] by replacing the AgeI-NotI restriction fragment (encoding mCherry) with a codon optimized LgBiT sequence. SmBiT-PRKACA and LgBiT-PRKAR2A plasmids are commercially available (Promega, N203 and N204).
Cells were harvested after 24 h and cell pellets were stored at − 80 °C.
In the screens described here, the lysate obtained from a single 15 cm plate was used for 2.5 384-well assay plates. NanoLuc substrate (furimazine) (Promega, N1110) was diluted 1000-fold in passive lysis buffer (Promega, E1941) and added 1:1 to the lysate. Screening libraries were purchased from Asinex[40] and ApexBio (FDA-approved Drug Library, L1021). Compounds were dispensed using an Echo acoustic dispenser and tested at a final concentration of 20 µM in a total assay volume of 20 μl in 384-well plate format. DMSO was added to each well at a final concentration of 0.2% (v/v) and wells containing only DMSO were used as negative control. After 30 min incubation at room temperature, luminescence was measured on a Tecan M1000 multi-mode plate reader. Raw luminescence reads from each well on each plate were normalized to the median luminescence signal for that plate. In the ApexBio screen, the scaled and normalized PKA signal for each compound was subtracted from the MeCP2-TBL1 signal for the same compound. After plate normalization the robust SSMD (SSMD*) was calculated as described elsewhere. A threshold of SSMD* ≥ 3 was applied for discerning primary hits.
Assays were performed as described above except instead of a single concentration, a threefold serial dilution ranging from 60 to 0.03 μM was tested in triplicate for each of the compounds. Half-maximal inhibitory concentrations were calculated using global nonlinear regression by fitting the response data sets of all compounds simultaneously with a four-parameter logistic curve of log inhibitor concentration versus normalized luminescence using GraphPad Prism. During fitting, the maximum and minimum curve values were shared between the data sets.

Where [1] appears, read: primary screen of the Asinex library, sheet "Sargen output Asinex library", one well per compound, Batch Ref. 1.
[2] abbreviates: primary screen of the Asinex library, sheet "Sargen output Asinex library", one well per compound.
[3] abbreviates: primary screen of Asinex library, single well per compound.

In the case of `COc1ccc(NC(=O)CN2[C@H]3CCCCC(=O)N[C@@]3(C)C[C@H]2c2cccc(OC)c2)cc1` [BDH_33626569], under setting [1], the Inhibition percent was -0.22%.

Turning to `Cc1cc(C)nc(NCCC(=O)N2CCOC(c3cccc(Cc4ccccc4C)n3)C2)n1` (stereo not shown) [BDF_25252602], the Inhibition percent under setting [2] is on record as -1.37%.

`CC(=O)N[C@@]12CN(CC(=O)Nc3cc(C)ccc3F)CC[C@@H]1[C@@H](c1ccccc1)N(C(C)=O)C2` [BDH_33619769]: the Inhibition percent under setting [2] is on record as -1.76%.

As for `NC(=O)C1CN(Cc2ccccc2)CCN1CC(=O)Nc1ccccc1C(F)(F)F` (stereo not shown) [BDH_33617130], the Inhibition percent under setting [2] is listed as -2.26%.

As to `O=C(c1ccnc(Cc2ccccc2F)c1)N1CCC(Cc2nccnc2-c2ncc[nH]2)CC1` [BDH_33521693], under setting [1], the Inhibition percent turned out to be 0.97%.

For `Cc1nonc1COc1ccccc1C(=O)N1CCCC(Cc2ccnc3ccccc23)CC1` (stereo not shown) [BDH_32354216], the Inhibition percent under setting [2] is reported as -0.73%.

Regarding `COc1ccc([C@@H]2C[C@]3(C)NC(=O)CCC[C@@H]3N2CC(=O)Nc2ccc(C)c(F)c2)cc1` [BDH_33625783], under setting [1], the Inhibition percent came out at 2.77%.

Turning to `CC1(C(=O)N2CCOCC(Cc3ccc4cnccc4c3)C2)CCN(CCc2ccccc2)CC1` (stereo not shown) [BDH_32362344], the Inhibition percent under setting [2] was -0.71%.

For `O=C(NC1CCCC1)c1cc(C2CCCCN2C(=O)C2CCN(Cc3ccncc3)CC2)n[nH]1` (stereo not shown) [BDE_33629993], under setting [2], the Inhibition percent was -2.91%.

Consider `Cc1nc(-c2cccnc2)sc1C(=O)N1[C@H]2CCC[C@H]3N[C@H](Cc4ccccc4)[C@@H]1C[C@@]23C` [BDG_33506581], for which the Inhibition percent under setting [2] was -1.21%.

Consider `NC(=O)c1cnn2c(C3CCCCN3C(=O)c3ccnc(Cc4ccccc4)c3)ccnc12` (stereo not shown) [BDH_33521422], for which the Inhibition percent under setting [1] is -0.87%.

Take `CC(=O)N[C@@]12CCN(CC(=O)Nc3cc(C)ccc3F)C[C@@H]1[C@@H](c1ccccc1)N(C(C)=O)C2` [BDH_33619766]: the Inhibition percent under setting [3] is on record as -3.87.

In the case of `Cc1nn(C)cc1CCC(=O)N1CCC[C@@H]2NC(=O)c3ccccc3OCCCCC[C@@H]21` [BDH_33734258], the Inhibition percent under setting [3] is -1.51.

For `CN(Cc1ccc2ncccc2c1)C(=O)Cn1cc(C(=O)NCc2ccccc2)ccc1=O` [BDB_26410269], the Inhibition percent under setting [2] is reported as -0.72%.

Take `Cc1nc(Nc2ncc(C#N)s2)ccc1CC1COCCN(S(C)(=O)=O)C1` (stereo not shown) [BDG_51128826]: under setting [3], the Inhibition percent is reported as -0.16.

Take `Cc1noc(C)c1COc1cccc(C(=O)N2CCCC(Cc3cccc4cnccc34)CC2)c1` (stereo not shown) [BDH_32354458]: under setting [1], the Inhibition percent is on record as 1.54%.

Consider `CCc1nccn1-c1ccc(C(=O)N2[C@H]3CCC[C@H]4N[C@@H](Cc5ccccc5)[C@@H]2C[C@@]34C)cn1` [BDG_33507727], for which, under setting [2], the Inhibition percent is -2.00%.

As for `O=C1CNC(=O)C2(C/C=C/C[C@H]3COCC[C@H]3N1)CCN(c1ncccn1)CC2` [BDH_33727647], the Inhibition percent under setting [3] is reported as -1.79.

Turning to `O=C1CC(C(=O)N2CCNC(=O)C2Cc2cccc(-c3ccccc3)c2)c2ccccc2N1` (stereo not shown) [BDD_21879577], the Inhibition percent under setting [1] was 4.73%.

With `O=C1OC2(CCCN(Cc3ccccc3OCc3ccccn3)CC2)CN1c1ccc(F)cc1` (stereo not shown) [BDH_32357695], the Inhibition percent under setting [3] came out at 1.61.

`CC(=O)N1CCc2nc(C3CCCN(C)C3)nc(NCCCc3ccccc3Cl)c2C1` (stereo not shown) [BDE_25356631]: the Inhibition percent under setting [2] is given as 2.24%.

For `NC(=O)c1cccc(-c2nccnc2C2CCCN(CCCc3ccccc3)C2)c1` (stereo not shown) [BDD_27892119], the Inhibition percent under setting [2] was -1.40%.

With `COc1ccccc1N1[C@H]2CCCN(C(=O)c3cccc(OCC(=O)O)c3)[C@H]2CC1(C)C` [BDG_34133274], the Inhibition percent under setting [3] is -3.82.

As for `Cc1c[nH]c(-c2nccnc2CC2CCCN(C(=O)c3ccnc(Cc4cccc(F)c4)c3)C2)n1` (stereo not shown) [BDH_33521378], the Inhibition percent under setting [3] is -5.26.

Consider `C[C@@H]1CC[C@@H]2[C@@H](C1)c1c(ccc(C(=O)O)c1O)OC2(C)C` [BDG_33904752], for which, under setting [2], the Inhibition percent worked out at 2.57%.

With `CN(CCC(=O)N1CCCC1c1cncc(Cc2cccc(Cl)c2)n1)Cc1cccnc1` (stereo not shown) [BDE_27213557], the Inhibition percent under setting [2] was -2.00%.

As to `O=C1CNC(=O)C2(C/C=C/C[C@H]3COCC[C@@H]3N1)CCN(C(=O)COc1ccccc1)CC2` [BDH_33728395], under setting [2], the Inhibition percent is reported as -3.47%.

Take `CCN(Cc1cnn(-c2ccc(C)cc2)c1)[C@@H]1CCO[C@H](c2ccc(C(=O)N(C)C)cc2)C1` [BDF_24511039]: the Inhibition percent under setting [2] is -0.31%.

Take `COc1ccc2c(c1)OC(C)(C)[C@H]1CC[C@H](C)O[C@H]21` [BDG_34023313]: the Inhibition percent under setting [1] is on record as -1.30%.

Take `CC(C)(C)c1ccc2c(c1)N(CC(=O)N1CCCCC1CCNC(=O)c1ccccc1)C(=O)CO2` (stereo not shown) [BDE_33630290]: the Inhibition percent under setting [3] is on record as -2.18.

`COc1cccc(Oc2cc(C)nc(C3CCCCN3C(=O)c3cccc(-n4cnnc4)c3)n2)c1` (stereo not shown) [BDH_32365761]: the Inhibition percent under setting [2] is on record as -5.24%.

With `Cc1cc(C)n(-c2cccc(C(=O)N3C[C@@H](c4ccccc4)[C@@]4(CCCCC(=O)N4)C3)c2)n1` [BDH_20395756], under setting [2], the Inhibition percent is -4.76%.

`O=C(OCc1ccccc1)N1C[C@@H](O)[C@H](N(Cc2ccccc2)Cc2ccc(F)c(F)c2)C1` [BDE_33958860]: the Inhibition percent under setting [3] is given as 12.36.

Regarding `CC(=O)N1CCCCC[C@@H]2[C@@H]1C[C@@H](Cc1ccccc1)N2C(=O)c1cccc(Cn2cncn2)c1` [BDH_33630828], under setting [1], the Inhibition percent is listed as -0.42%.

On to `COc1cccc2c1OC(C)(C)[C@H]1CC3(CCN(C(=O)CCCN4C(=O)CNC4=O)CC3)CO[C@H]21` [BDG_33695254], for which, under setting [3], the Inhibition percent is recorded as -4.47.

As for `CNc1nc(C2CCCCN2C(=O)CCNc2nc(C)cc(C)n2)nc2c1CCN(C(C)=O)C2` (stereo not shown) [BDH_33629184], the Inhibition percent under setting [2] is -0.36%.

Consider `COc1cccc(C2CN(Cc3ccccc3)C(=O)C23CCN(Cc2ccccc2C(=O)O)CC3)c1` (stereo not shown) [BDH_34130263], for which, under setting [3], the Inhibition percent was determined as 5.00.

Consider `Cc1ncc(C(=O)NCc2ccccc2)c(CC2CCN(C(=O)C3CCCCC3)CC2)n1` [BDD_23848427], for which the Inhibition percent under setting [1] was -4.61%.

In the case of `Cc1cc(O[C@@H]2C[C@@H](NC(=O)CCC(=O)O)[C@H](N3CCc4ccccc4C3)[C@H]2O)cc(C(C)C)c1` [BDG_34049574], the Inhibition percent under setting [1] was 0.88%.

On to `Cc1cc(C)nc(NCCCC(=O)N2[C@H](Cc3ccccc3)C[C@]3(C)NC(=O)CCC[C@H]23)n1` [BDG_24639132], for which the Inhibition percent under setting [3] is given as -1.41.

On to `CCN(CC)C(=O)CN1CCOC(c2c(C(=O)N3CCOCC3)sc3ncccc23)C1` (stereo not shown) [BDF_24025276], for which the Inhibition percent under setting [1] was -4.29%.

As to `COc1ccc([C@H]2CN(C)[C@@H]3CCN(C(=O)c4ccnc(Cc5ccccc5OC)c4)C[C@H]23)cc1` [BDH_33520255], the Inhibition percent under setting [2] was -0.37%.

Take `Cc1cc(Cc2ccccc2F)cc(C2CN(C(=O)Cn3cnc4ccccc43)CCO2)n1` (stereo not shown) [BDF_26219772]: the Inhibition percent under setting [1] was 3.08%.

Take `CC(C)=CCC[C@@]1(C)Oc2cc(OCCO)ccc2[C@H]2O[C@H]3CCN(C(=O)OC(C)(C)C)C[C@@H]3C[C@@H]21` [BDG_33958723]: the Inhibition percent under setting [1] was 5.54%.

Consider `O=C(CCc1[nH]nc2c1CCCC2)N1CCOC(c2cccc(Cc3ccc(F)cc3)n2)C1` (stereo not shown) [BDF_25251125], for which, under setting [1], the Inhibition percent is -1.98%.

Turning to `C[C@]12C[C@@H](Cc3ccccc3)N(CC(=O)NCc3ccccc3Cl)[C@H]1CCCC(=O)N2` [BDH_33626431], under setting [3], the Inhibition percent came to 6.92.

The record behind these values is publication PMC9995496, “A screen for MeCP2-TBL1 interaction inhibitors using a luminescence-based assay” (Scientific Reports, 2023).
